Measurements taken from patent publication US8685976B2, “Cell adhesion promoting agent and method of promoting cell adhesion” (Kyoto University, priority 2008, dated 2014).
“Also recorded” adds a separate entry of the source. Like-named read-outs stand apart in the source and are kept apart here. Blank lines part the entries; values can stand above or below the molecule they belong to.

Experiments:
[1] = test system: Jurkat cells; experiment: Cell adhesion assay by addition, Jurkat cells; assay type: cell-based, human; conditions: Jurkat cells; for cell-adhesion promoting activity of adhesamine derivatives: FIG. 6
Protocol: 1 μL each of an aqueous solution of adhesamine (1), Type I collagen, poly-L-lysine hydrochloride, poly-L-ornithine hydrobromide, and fibronectin at a concentration of 50, 500, and 5000 μg/ml, was added to 96-well plate. 100 μL of HepG2 suspension (4×10^5 cells/mL) was added to each well. After 3-hour incubation at 37° C., non-adherent cells were removed by washing each well with PBS three times, and the attached cells were counted with a Neubauer counting chamber (Digital Bio). For Jurkat cells, 100 μL of cell suspension was added to each well at a density of 1×10^6 cells/ml. After 5-hour incubation at 37° C., non-adhered cells were removed by washing each well with PBS twice, and the attached cells were counted with a Neubauer counting chamber (Digital Bio). To calculate adhesion rates, firstly seeded cell numbers were assigned a value of 100%. As control tests, the same tests were conducted using wells supplied with only 1 μL of DMSO. Each assay was conducted in triplicate, and the means and standard derivations were calculated.
The comparison between adhesamine and its derivatives regarding cell adhesion promotion activity was conducted using Jurkat cells by way of reagent addition assay. 1 μL each of DMSO solutions of the compounds having concentrations of 60, 600, and 6000 μM were added to 96-well plates. The wells were supplied with 100 μL each of Jurkat cell suspensions (1×10^6 cells/mL). After 5-hour incubation at 37° C., non-adhered cells were removed by washing each well with PBS twice, and the attached cells were counted with a Neubauer counting chamber (Digital Bio). To calculate adhesion rates, firstly seeded cell numbers were assigned a value of 100%. As control tests, the same tests were conducted using well plates supplied with only 1 μL of DMSO. Each assay was conducted in triplicate, and the means and standard derivations were calculated.
However, since HepG2 cells have an intrinsic propensity to adhere to plastic tissue-culture plates, a test was conducted to determine whether the same effect was also obtained in the Jurkat cell line and human T-lymphocytes that are floating cells. Remarkably, 30% and 60% of the Jurkat cells attached to a culture plate in the presence of 6 and 60 μM of adhesamine, respectively (FIG. 1D). Removal of adhesamine by washing the plate twice with PBS detached the cells. 93% of Jurkat cells were released from the surface of a culture plate 24 hour after washing (FIG. 2). […] Simply adding adhesamine to the medium promoted adhesion of Jurkat cells onto culture plates, but not to each other.

[2] = test system: HepG2 cells; experiment: Confocal imaging of fluorescent compounds; assay type: cell-based; conditions: for localization of the fluorescent compound: HepG2, 6 μM, 3 hours
Protocol: HepG2 cells were incubated with Compound 4 (6 μM, A and C) or Compound 5 (6 μM, B and D) for 3 hours after seeding.
(§1) In (A) and (B), Jurkat cells (A) or HepG2 cells (B) were pretreated with 0.02 units/mL of heparinase, heparitinase I, and heparitinase II, or 0.1 units/mL of protease-free chondroitinase ABC in a serum-free culture medium for 1 hour at 37° C. before evaluating cell adhesion. The treated cells were seeded onto adhesamine-added or fibronectin-coated plastic wells. The attached cells were counted at 5 hours after seeding. The concentrations of adhesamine and fibronectin were 6 μM and 5 μg/mL, respectively. Each point represents the means±SD. (C) and (D) show localization of Compound 4 in HepG2 cells treated with heparinase/heparitinase I/heparitinase II (C) or chondroitinase ABC (D).
HepG2 cell suspension (100 μL) were seeded on a 96-well plate (Greiner bio-one) at a density of 2×10^5 cells/mL, and the cells were incubated with Compounds 4 and 5 for 3 hours at 37° C., at a concentration of 6 μM. After incubation, medium exchange was performed, and the cells were then subjected to fluorescent microscopic observation. Microscopic images of the cells were captured by a Yokogawa CSU22 confocal fluorescence microscope with 405 nm laser excitation.

[3] = test system: Jurkat cells; experiment: Cytoskeletal disruption, cell adhesion; assay type: cell-based, human; conditions: for effect on adhesamine-mediated cell adhesion: adhesamine 6 μM, cytochalasin B 0-100 μM or nocodazole 0-0.5 μM; for effect on fibronectin-mediated cell adhesion: fibronectin-coated plate; for effect on cell attachment induced by poly-L-lysine: poly-L-lysine-coated plate
Protocol: Jurkat cells were adhered to plastic plates by adding adhesamine thereto in the presence of nocodazole (a tubulin inhibitor) or cytochalasin B (an actin inhibitor). Both nocodazole and cytochalasin inhibited adhesamine-induced cell adhesion, as observed in the cells adhered to a fibronectin-coated plate. […] The concentration of adhesamine was 6 μM. The fibronectin- or poly-L-lysine-coated plates were prepared by pretreating wells of 96-well plates with fibronectin or poly-L-lysine (1 ng/well).
Jurkat cells (5×10^4) were cultured in 100 μL of RPMI, and incubated with cytochalasin B (0-100 μM) or nocodazole (0-0.5 μM) at 37° C. The treated cells were then assayed for their responses to adhesamine (6 μM). Their responses to fibronectin- or poly-L-lysine-coated plates were also evaluated. The coated plates were prepared by pretreating wells of 96-well plates with fibronectin or poly-L-lysine (1 ng/well).

[4] = test system: adhesamine (6 μM)-induced cell attachment of Jurkat cells; experiment: Squelching assay; assay type: cell-based, human; conditions: for IC50: adhesamine 6 μM, Jurkat cells
Protocol: Adhesamine (1: 0.6 nmol) and each glycosaminoglycan (GAG) (heparin, heparan sulfate, chondroitin sulfate, keratan sulfate, hyaluronic acid, and heparin oligosaccharides) ranging from 0.006 to 12 nmol were stirred in 10 μL of 50 mM phosphate buffer (pH 6.0) containing 100 mM NaCl and 1% DMSO with a vortex mixer at room temperature for 30 min. Thereafter, these mixtures were transferred to 96-well plates, and 90 μL of Jurkat cell suspension (1×10^5 cells/mL) was added to each well. After 5-hour incubation at 37° C., non-adherent cells were removed by washing each well with PBS twice, and the attached cells were counted with a Neubauer counting chamber (Digital Bio). To calculate the inhibition rates, the number of attached cells in the wells supplied only with 1% DMSO or GAG of each concentration was subtracted from the number of cells in which the cell adhesions were observed after addition of the samples. The inhibition rate is expressed as follows.
wherein AC+(−)GAGs, +(−)adhesamine expresses the number of adhered cells in the presence (absence) of GAGs and adhesamine.
IC50 values are defined as the concentrations of GAGs required for 50% inhibition of the adhesamine (6 μM)-induced cell attachment. The results of the squelching assays were plotted as percentage of inhibition vs. log (GAG), and IC50 values were determined from curve fits of multiple independent experiments.

[5] = test system: focal adhesion kinase (FAK); experiment: Western blotting, FAK activation; assay type: cell-based, human; conditions: Jurkat, adhesamine 6 μM, excess heparin or RGD peptide (100 μg/mL)
Protocol: (§2) Jurkat cells were treated with adhesamine (6 μM) in a serum-poor culture medium (0.1% FBS) for the indicated periods of time. The treated cell lysates were Western blotted with antibodies against FAK phospho-tyrosine^397 (pFAK), FAK, ERK1/2 phospho-threonine^202/tyrosine^204 (pERK) or ERK. In (B), Jurkat cells were incubated for 5 hours with varied concentrations of adhesamine or poly-L-lysine. The cell lysates were Western blotted with antibodies against FAK phospho-tyrosine^397 or FAK. […] The concentration of adhesamine (1) was 6 μM.
(§3) Jurkat cells were maintained in an RPMI medium containing 10% FBS. 5-6 million Jurkat cells were dispensed to a well of a 6-well plate in a final volume of 2 mL, and then incubated at 37° C. for 0-5 hours in the presence of adhesamine or poly-L-lysine. Non-adherent cells were removed and pelleted, and the remaining adherent cells were lysed in a 125 mM Tris-HCl buffer (pH 6.8) containing 4% SDS, 10% glycerol, 0.006% bromophenol blue, and 1.8% β-mercaptoethanol. The adherent cell homogenate was combined with pelleted nonadherent cells from the same well, and the combined sample was boiled for 5 minutes. The samples were separated by SDS-PAGE and electroblotted onto a nitrocellulose membrane. The membranes were blocked in 1% BSA and incubated with primary antibody, and then with horseradish peroxidase-conjugated secondary antibody. The blots were developed using the enhanced chemiluminescence technique.

[6] = test system: extracellular signal-regulated kinase (ERK); experiment: Western blotting, ERK activation; assay type: cell-based, human; conditions: Jurkat, excess amounts of heparin
Protocol: as §2
as §3, with “The blots were developed using the enhanced chemiluminescence technique.” left out

[7] = test system: HepG2 cells; experiment: Enzymatic treatment of cells, cell adhesion, HepG2; assay type: cell-based; conditions: heparinases 0.02 units/mL, chondroitinase ABC 0.1 units/mL
Protocol: as §1
The effects of these GAG-degrading enzymes on the intact or adhesamine-enhanced attachment of HepG2 cells were examined. […] As observed in Jurkat cells, adhesamine-induced cell adhesion was canceled by heparan sulfate-degrading enzymes, but not by chondroitinase ABC (FIG. 9B).

[8] = test system: Jurkat cells; experiment: Enzymatic treatment of cells, cell adhesion, Jurkat; assay type: cell-based, human; conditions: heparinases 0.02 units/mL, chondroitinase ABC 0.1 units/mL
Protocol: as §1
Jurkat cells (5×10^4) were cultured in 100 μL of RPMI and treated with a combination of heparinase, heparitinase I, and heparitinase II (0.02 units/mL) or chondroitinase ABC (0.1 units/mL) for 30 min at room temperature. The ability of the treated cells to respond to adhesamine was evaluated by counting the cells that were attached to plastic wells of a 96-well plate in the presence of adhesamine (6 μM).

[9] = test system: Jurkat cells; experiment: Microinjection of Alexa Fluor 594; assay type: cell-based, human; conditions: 5 μg/mL reagent
Protocol: The concentration of the reagents used was 5 μg/mL.
The solutions of adhesamine (1), Type I collagen, poly-L-lysine hydrochloride, and fibronectin were prepared by diluting with PBS containing 1% (v/v) DMSO. 10 μL of each solution (1 mg/mL) was added to glass bottom culture dishes (35 mm uncoated dish). 2 mL of cell suspension in a culture medium was added to each well at a density of 2×10^5 cells/mL. After 14-hour incubation at 37° C., Alexa Fluor 594 (Molecular Probes, USA) at a concentration of 5 mg/mL was injected into Jurkat cells by using a CI-2000 automated cell injection system (Fujitsu, Japan). Success rates of the microinjection were evaluated by direct observation of the fluorescent cells through a fluorescent-microscopic window of the injection system. The data shown are means±SD for a minimum of three experiments. 20 cells were injected in each experiment.

[10] = read-out: IC50 (GAGs, 50% inhibition of adhesamine-induced cell attachment)

Molecule: C1C[N+]2(CCN1)CC[N+]1(CCNCC1)CC2.[Br-].[Br-] [Compound 2, 3,12-diaza-6,9-diazoniadispiro-(5,2,5,2)-hexadecane dibromide, reference compound]
cell-adhesion promoting activity of adhesamine derivatives [1]: completely eliminated the activity

Molecule: CSc1nc(Cl)c(CO)c(N2CC[N+]3(CC2)CC[N+]2(CCN(c4nc(SC)nc(Cl)c4CO)CC2)CC3)n1 [Compound 3]
cell-adhesion promoting activity of adhesamine derivatives [1]: no impact on activity

Molecule: CSc1nc(Cl)c(C=NNS(=O)(=O)c2cccc3c(N(C)C)cccc23)c(N2CC[N+]3(CC2)CC[N+]2(CCN(c4nc(SC)nc(Cl)c4C=NNS(=O)(=O)c4cccc5c(N(C)C)cccc45)CC2)CC3)n1 [Compound 4]
cell-adhesion promoting activity of adhesamine derivatives [1]: maintained the cell-adhesion promoting activity | localization of the fluorescent compound [2]: on the cell surface | localization of the fluorescent probe ([2]; HepG2 cells treated with chondroitinase): no impact on the cell-surface localization | localization of the fluorescent probe ([2]; HepG2 cells treated with heparan sulfate-degrading enzymes): diffused from the cell surface

Molecule: CN(C)c1cccc2c(S(=O)(=O)N3CC[N+]4(CC3)CC[N+]3(CCN(S(=O)(=O)c5cccc6c(N(C)C)cccc56)CC3)CC4)cccc12 [Compound 5]
cell-adhesion promoting activity of adhesamine derivatives [1]: little effect on cell adhesion | localization of the fluorescent compound [2]: no clear localization

Molecule: O=[N+]([O-])c1c(Cl)ncnc1N1CC[N+]2(CC1)CC[N+]1(CCN(c3ncnc(Cl)c3[N+](=O)[O-])CC1)CC2 [Compound 6]
Jurkat cell adhesion rate (%) in 6 μM of Adhesamine [1]: 22 ± 3.2%

Molecule: O=[N+]([O-])c1c(N2CC[N+]3(CC2)CC[N+]2(CCNCC2)CC3)ncnc1N1CC[N+]2(CC1)CC[N+]1(CCNCC1)CC2.[Cl-].[Cl-].[Cl-].[Cl-] [Compound 7]
Jurkat cell adhesion rate (%) in 6 μM of Adhesamine [1]: 21 ± 1.3%

Molecule: CSc1nc(Cl)c(C=O)c(N2CC[N+]3(CC2)CC[N+]2(CCN(c4ncnc(N5CC[N+]6(CC5)CC[N+]5(CCN(c7nc(SC)nc(Cl)c7C=O)CC5)CC6)c4[N+](=O)[O-])CC2)CC3)n1.[Cl-].[Cl-].[Cl-].[Cl-] [Compound 8]
Jurkat cell adhesion rate (%) in 6 μM of Adhesamine [1]: 28 ± 4.1%

Molecule: Clc1nc(Cl)nc(N2CC[N+]3(CC2)CC[N+]2(CCN(c4nc(Cl)nc(Cl)n4)CC2)CC3)n1 [Compound 9]
Jurkat cell adhesion rate (%) in 6 μM of Adhesamine [1]: 35 ± 5.2%

Molecule: C=C1[C@@H](C)[C@H]2[C@H](Cc3ccccc3)NC(=O)[C@]23OC(=O)/C=C/[C@H](O)CCC[C@@H](C)C/C=C/[C@H]3[C@@H]1O [cytochalasin B]
effect on adhesamine-mediated cell adhesion [3]: inhibited | effect on fibronectin-mediated cell adhesion [3]: impaired | effect on cell attachment induced by poly-L-lysine [3]: no detectable effects; also recorded: hardly inhibited

Molecule: COC(=O)Nc1nc2ccc(C(=O)c3cccs3)cc2[nH]1 [nocodazole]
effect on adhesamine-mediated cell adhesion [3]: inhibited | effect on fibronectin-mediated cell adhesion [3]: impaired | effect on cell attachment induced by poly-L-lysine [3]: no detectable effects; also recorded: hardly inhibited

IC50 [4, 10]: 0.79 µM
Molecule: Heparan sulfate

IC50 [4, 10]: 0.27 µM | IC50 ([4]; read-out: IC50 (heparin oligosaccharides, 50% inhibition of adhesamine-induced cell attachment)): 0.27 ± 0.05 µM
Molecule: Heparin [reference compound]
effect on adhesamine-induced phosphorylation of FAK [5]: reduced | effect on adhesamine-induced ERK activation [6]: blocked

IC50 [4, 10]: > 120 µM
Molecule: Hyaluronic acid
ability to squelch the activity of adhesamine ([4]; GAG added to the medium together with adhesamine): no detectable effect

IC50 [4, 10]: 1.03 µM
Molecule: Keratan sulfate

Molecule: chondroitinase ABC
inhibition of intact attachment of HepG2 cells [7]: 7% | effect on adhesamine-induced cell attachment [8]: no detectable effects

Molecule: fibronectin: fibronectin from bovine plasma, plate-coating reagent
microinjection success rates [9]: up to 30%
